Assay results published in patent publication US8338445B2, “Crystal form of cabergoline” (Lek Pharmaceuticals D.D., priority 2007, dated 2012).

Legend:
[1] = Residual solvents after comparable drying of crystal forms; type: physicochemical; conditions: after drying at 35° C. at 5 mBar for 48 h; both forms isolated from same solvent mixture
Experimental: Cabergoline from L isolated by the process of the invention can be washed by cold aliphatic hydrocarbons or digesting previously isolated material in a suspension of aliphatic hydrocarbons preferably heptane to remove impurities and finally dried in vacuo at temperature from 20 to 80° C., preferably from 30 to 50° C., preferably 30 to 40° C. to remove residual solvents. […] Form L and form I are isolated from the same solvent mixture, but form I is captured as an early precipitate as described in Example B and contains below 5% of form L. Solvents are easier removed if cabergoline is in the form of needles.
6.1 g of cabergoline obtained in example 1 were dissolved in 12 ml of 2-chlorotoluene by agitating at room temperature. The solution was cooled down to −30° C. while stirring. The gel-like material was formed after 60 minutes. Furthermore 150 ml of n-heptane were added and let stirring 1 hour at −20° C. Further the solvent was exchanged with 100 ml of fresh n-heptane, precooled to −20° C. and let stirring 1 hour at −20° C. Afterwards the temperature was slowly raising to 0° C. (0.5 K/min) and small samples were analyzed.

[2] = Particle size distribution by the Malvern method; type: physicochemical
Experimental: Physically pure cabergoline form L is isolated in a form of fine needles what is shown in the SEM picture. Average shorter axis of the needles is below 10 μm. Milling of cabergoline form L isolated by the process of the invention by a hammer mill gives particle size distribution d 0.9 below 10 μm.
6.1 g of cabergoline obtained in Example 1 were dissolved in 12 ml of 2-chlorotoluene by agitating at room temperature. The solution was cooled down to −30° C. while stirring. The gel-like material was formed after 60 minutes. Furthermore 150 ml of n-heptane were added and let stirring 1 hour at −20° C. Further the solvent was exchanged with 100 ml of fresh n-heptane, precooled to −20° C. and let stirring 1 hour at −20° C. Afterwards the temperature was raised to 10° C. (0.5 K/min) and further stirred for 1 hour, The temperature was raised to 20° C. (0.5 K/min) followed by stirring for 5 hour. The obtained dense suspension was filtered and washed with 50 ml of n-heptane and dried at 40° C. and 5 mbar for 24 hours. The obtained needle-like product (5.5 g) was identified as cabergoline form L. Particle size distribution of the product of Example 2 is the following: d 0.1=0.4 um; d 0.5=4.2 um; d 0.9=33 um.
Particle size distribution was measured by the Malvern method.

Row | SMILES | residual solvent 2-Chlorotoluene [1] [ppm] | residual solvent Heptane [1] [ppm] | particle size distribution d 0.9 ([2]; after milling by a hammer mill) | Particle size distribution d 0.1 ([2]; product of Example 2, unmilled) [um] | Particle size distribution d 0.5 ([2]; product of Example 2, unmilled) [um] | particle size distribution d 0.9 ([2]; product of Example 2, unmilled) [um]
1 | C=CCN1C[C@H](C(=O)N(CCCN(C)C)C(=O)NCC)C[C@@H]2c3cccc4[nH]cc(c34)C[C@H]21 [Cabergoline form I, 1-((6-allylergolin-8β-yl)-carbonyl)-1-(3-dimethylaminopropyl)-3-ethylurea, reference compound] | 333 | 764 |  |  |  | 
2 | C=CCN1C[C@H](C(=O)N(CCCN(C)C)C(=O)NCC)C[C@@H]2c3cccc4[nH]cc(c34)C[C@H]21 [Cabergoline form L, 1-((6-allylergolin-8β-yl)-carbonyl)-1-(3-dimethylaminopropyl)-3-ethylurea] | 236 | 186 | below 10 μm | 0.4 | 4.2 | 33
